Key:
[1] = system: Vero-E6 cells
Procedure: Cytotoxicity was measured using Promega™ CytoTox 96™ Nonradioactive Cytotoxicity Assay (cat #G1780, Promega, Madison, Wis., USA).
Cytotoxicity was measured using the Promega™ CytoTox 96™ Nonradioactive Cytotoxicity Assay kit (cat #G1780, Promega, Madison, Wis., USA) in 50 μL reactions and 96-well format (cat #161093, Thermo Fisher Scientific, Waltham, Mass., USA) according to the manufacturer's protocol, except we used 20 μL of 10× Lysis Solution per 100 μL of sample and incubated at 37° C. for 30 minutes to generate the maximum LDH release control. The assay was measured using a BioTeK Synergy™ HT plate reader (model #7091000, BioTek, Winooski, Vt., USA) at an optical density of 490 nm (OD490). Cytotoxicity was measured for ≤60 μM Cmpd. x for all three cell lines (LLC-MK2, Vero E6, and Calu-3). LLC-MK2 cells were assessed for cytotoxicity at 5 days, whereas Vero E6 and Calu-3 cells were assessed for cytotoxicity every 24 hours from 1-5 days.

[2] = system: SARS-CoV-2 isolate USA-WA1/2020; test: Virus plaque formation assay; format: cell-based
[3] = system: SARS-CoV-2 isolate USA-WA1/2020; test: RT-PCR assay of viral load (viral RNA copy number in cell supernatant); format: cell-based

COc1ccc2c3c([nH]c2c1)C(CCCC1=NCCc2c1[nH]c1cc(OC)ccc21)=NCC3 [GZ440-6, 1,3-bis(7-methoxy-4,9-dihydro-3H-pyrido[3,4-b]indol-1-yl)propane]
average cytotoxicity values [1]: not elevated above controls
inhibition of plaque formation ([2]; 2.0 μM, 5.0 μM and 10.0 μM, Vero-E6 cells, 120 h after infection): negligible inhibition
inhibition of plaque formation ([2]; 20 μM and above, Student's T-Test vs. Camostat/E64d P<0.05): inhibition of plaque formation was significant
viral numbers (RNA copy number) ([3]; 40 μM (P<0.05), FIG. 3C): clear reduction in viral numbers
viral load (viral RNA levels) ([3]; higher concentrations (20 and 40 μM), 120 hours after infection): decreased viral load
viral load (viral RNA levels / viral numbers) ([3]; lower concentrations (2, 5, 10 μM), 120 hours after infection, listed as compound of the invention): no consistent reduction of viral numbers

From US11576902B2, “Inhibition of COVID-19 virus” (Ankh Life Sciences Limited, priority 2020, dated 2023)
